± gives the expanded uncertainty stated by the source.
Assay: activity coefficient (dimensionless); of the first substance listed, at infinite dilution; xn = mol fraction of the nth substance listed
Conditions: Liquid, Chromatography, x1 = 0

activity coefficient (308.15 K)	activity coefficient (318.15 K)	activity coefficient (328.15 K)	SMILES
8.2 ± 0.6	8 ± 0.5	7.1 ± 0.5	C=CCCCCC [1-heptene] + CCCC[P+](C)(CCCC)CCCC.COS(=O)(=O)[O-]
1.8 ± 0.1	1.7 ± 0.1		C#CCCCC [1-hexyne] + CCCC[P+](C)(CCCC)CCCC.COS(=O)(=O)[O-]
1 ± 0.1	1 ± 0.1	0.9 ± 0.1	c1ccccc1 [benzene] + CCCC[P+](C)(CCCC)CCCC.COS(=O)(=O)[O-]
6.5 ± 0.4	6.4 ± 0.4	5.3 ± 0.4	C1CCCCCC1 [cycloheptane] + CCCC[P+](C)(CCCC)CCCC.COS(=O)(=O)[O-]
5.5 ± 0.4	5.4 ± 0.4	4.6 ± 0.3	C1CCCCC1 [cyclohexane] + CCCC[P+](C)(CCCC)CCCC.COS(=O)(=O)[O-]
4.5 ± 0.3	4.3 ± 0.3	3.5 ± 0.2	C1CCCC1 [cyclopentane] + CCCC[P+](C)(CCCC)CCCC.COS(=O)(=O)[O-]
13.4 ± 0.9	12.2 ± 0.8	10.7 ± 0.7	CCCCCCC [heptane] + CCCC[P+](C)(CCCC)CCCC.COS(=O)(=O)[O-]
6.4 ± 0.4	6 ± 0.4	5.3 ± 0.4	C=CCCCC [hex-1-ene] + CCCC[P+](C)(CCCC)CCCC.COS(=O)(=O)[O-]
10.3 ± 0.7	9.5 ± 0.7	8.4 ± 0.6	CCCCCC [hexane] + CCCC[P+](C)(CCCC)CCCC.COS(=O)(=O)[O-]
10.1 ± 0.7	10 ± 0.7	8.9 ± 0.6	C=CCCCCCC [oct-1-ene] + CCCC[P+](C)(CCCC)CCCC.COS(=O)(=O)[O-]
17.3 ± 1.2	15.9 ± 1.1	13.8 ± 0.9	CCCCCCCC [octane] + CCCC[P+](C)(CCCC)CCCC.COS(=O)(=O)[O-]
8.1 ± 0.6	7.7 ± 0.5	6.7 ± 0.5	CCCCC [pentane] + CCCC[P+](C)(CCCC)CCCC.COS(=O)(=O)[O-]
